Columns and labels:
[1] = test system: CCl4-induced liver fibrosis mice; assay: CCl4-induced liver fibrosis, therapeutic efficacy; assay type: in vivo, Kunming male mice
Experimental: The Kunming male mice (weight of 28–30 g) were divided into 10 groups (n = 10): normal group, CCl4-induced liver fibrosis group, CCl4 induction treated with Frax or G2-β-CD-Frax treatment groups (5, 10, and 20 mg/kg, respectively), CCl4 induction with colchicine (0.2 mg/kg) treatment group, CCl4 induction with G2-β-CD solution treatment (equivalent to 20 mg/kg of G2-β-CD-Frax) group. The mice in the normal group were treated with olive oil only, while the other groups were intraperitoneally injected with 10% CCl4-olive oil every other week for 10 weeks (5 mL/kg for the first dose and 3 mL/kg for the second starting dose). Drug treatment began on the fourth week of modeling and continued every day for 7 weeks. One day after the last administration, blood in all the groups was immediately harvested for assays of AST and ALT. […] were then sacrificed and livers were collected and divided into two parts for histological examination and Hydroxyproline (HYP) assay, respectively.

[2] = Blood biochemical assay (hematological parameters); assay type: in vivo, Kunming male mice; conditions: mice, 7 weeks; for PLT (platelet) / WBC (white blood cell): in 10^9/L (unit assumed); for RBC (red blood cell): in 10^12/L (unit assumed); for HCT (haematocrit) / RDW-CV (red cell volume distribution width): in % (unit assumed); for MCV (mean cell volume) / MPV (meanplateletvolume) / RDW-SD: in fL (unit assumed); for HGB (hemoglobin): in g/L (unit assumed); for MCH (mean corpuscular hemoglobin): in pg (unit assumed)
Experimental: The Kunming male mice (weight of 28–30 g) were divided into 10 groups (n = 10): normal group, Frax or G2-β-CD-Frax treatment groups with a Frax dose of 5, 10, and 20 mg/kg, respectively, G2-β-CD solution treatment (equivalent to 20 mg/kg of G2-β-CD-Frax) group. Drug treatment continued every day for 7 weeks. One day after the last administration, blood and major tissues (heart, liver, spleen, lung, and kidney) were obtained from the blank group and drug-treated groups (20 mg/kg) for histological examination. The whole blood was directly analyzed using an automatic blood cell analyzer to obtain hematological parameters. The collected tissues were subjected to histological examination.

Caco-2 cells = assay: Cytotoxicity in Caco-2 cells (MTT assay); assay type: cell-based; conditions: Caco-2, concentration increased to 200 μg/mL
Experimental: Cytotoxicity effects and cellular uptake ability of Frax, CDs, and CDs-Frax complexes were examined using Caco-2 cells. […] Each CD solution was also used to determine whether the cell toxicity was caused by Frax or CDs. For cellular uptake studies, Caco-2 cells were treated with Frax and CDs-Frax (100 μg/mL) for 0.5, 1, and 2 h, respectively. For P-gp inhibition evaluation, the cells were pretreated with verapamil at a concentration of 100 μg/mL and further treated with each drug or formulation. Thereafter, the cells were washed and replenished with fresh PBS (300 μL). The cell lysate was prepared by three cycles of freeze-thaw. Protein concentration in the samples was quantified by the BCA kit while the Frax concentration was determined by HPLC.

[3] = oral 5 mg/kg daily for 7 weeks, vs CCl4 group

Question: Which results are given for CC1=C2C(=O)O[C@@H](c3ccoc3)[C@]2(C)CCC1 [Frax, Fraxinellone]?
Answer: collagen in liver tissue (Masson, Sirius Red staining) [1, 3]: no obvious inhibition; levels of liver fibrosis markers AST, ALT and HYP [1, 3]: no significant decrease; effect on liver fibrosis ([1]; oral 20 mg/kg daily for 7 weeks): rather modest effect; MCHC (mean corpuscular hemoglobin concentration) ([2]; 5 mg/kg): 342.63 ± 10.38; PDW (platelet distribution width) ([2]; 5 mg/kg): 14.84 ± 0.12; PLT (platelet) ([2]; 5 mg/kg): 1188.13 ± 317.24; WBC (white blood cell) ([2]; 5 mg/kg): 7.78 ± 3.91; RBC (red blood cell) ([2]; 5 mg/kg): 9.21 ± 0.75; HCT (haematocrit) ([2]; 5 mg/kg): 39.54 ± 2.28; RDW-CV (red cell volume distribution width) ([2]; 5 mg/kg): 16.24 ± 1.32; MCV (mean cell volume) ([2]; 5 mg/kg): 43.01 ± 2.17; MPV (meanplateletvolume) ([2]; 5 mg/kg): 6.51 ± 0.32; RDW-SD ([2]; 5 mg/kg): 29.88 ± 3.52; HGB (hemoglobin) ([2]; 5 mg/kg): 135.50 ± 10.76; MCH (mean corpuscular hemoglobin) ([2]; 5 mg/kg): 14.73 ± 0.49; MCHC (mean corpuscular hemoglobin concentration) ([2]; 10 mg/kg): 344.43 ± 9.64; PDW (platelet distribution width) ([2]; 10 mg/kg): 14.91 ± 0.12; PLT (platelet) ([2]; 10 mg/kg): 1012.71 ± 281.88; WBC (white blood cell) ([2]; 10 mg/kg): 6.46 ± 2.46; RBC (red blood cell) ([2]; 10 mg/kg): 8.42 ± 0.32; HCT (haematocrit) ([2]; 10 mg/kg): 37.15 ± 1.70; RDW-CV (red cell volume distribution width) ([2]; 10 mg/kg): 16.22 ± 0.59; MCV (mean cell volume) ([2]; 10 mg/kg): 43.80 ± 1.44; MPV (meanplateletvolume) ([2]; 10 mg/kg): 6.63 ± 0.44; RDW-SD ([2]; 10 mg/kg): 30.71 ± 1.70; HGB (hemoglobin) ([2]; 10 mg/kg): 127.00 ± 5.10; MCH (mean corpuscular hemoglobin) ([2]; 10 mg/kg): 15.09 ± 0.46; MCHC (mean corpuscular hemoglobin concentration) ([2]; 20 mg/kg): 338.75 ± 3.58; PDW (platelet distribution width) ([2]; 20 mg/kg): 14.86 ± 0.17; PLT (platelet) ([2]; 20 mg/kg): 1190.00 ± 157.80; WBC (white blood cell) ([2]; 20 mg/kg): 8.32 ± 3.90; RBC (red blood cell) ([2]; 20 mg/kg): 9.07 ± 0.33; HCT (haematocrit) ([2]; 20 mg/kg): 38.83 ± 1.69; RDW-CV (red cell volume distribution width) ([2]; 20 mg/kg): 16.54 ± 0.79; MCV (mean cell volume) ([2]; 20 mg/kg): 42.83 ± 1.54; MPV (meanplateletvolume) ([2]; 20 mg/kg): 6.38 ± 0.23; RDW-SD ([2]; 20 mg/kg): 30.13 ± 2.23; HGB (hemoglobin) ([2]; 20 mg/kg): 131.50 ± 5.66; MCH (mean corpuscular hemoglobin) ([2]; 20 mg/kg): 14.51 ± 0.46; cytotoxicity (in words) (Caco-2 cells): marked cell death

— publication PMC8451604, “Rational formulation engineering of fraxinellone utilizing 6-O-α-D-maltosyl-β-cyclodextrin for enhanced oral bioavailability and hepatic fibrosis therapy” (Drug Delivery, 2021)
